Assay results reported in US11242327B2, “Analgesic compounds” (RECURIUM IP HOLDINGS, LLC, priority 2017, dated 2022).

Columns and labels:
male Sprague-Dawley rats [1] = assay: UVB Inflammatory Pain Test (thermal hyperalgesia); type: in vivo; conditions: rat, oral; for paw withdrawal latency, 1 h: 1 h after dosing; for paw withdrawal latency, 2 h: 2 h after dosing; for paw withdrawal latency, 4 h: 4 h after dosing
Procedure, shortened: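 Left hind-paw plantar UVB (350 mJoules/cm^2) given on Day −3 to male Sprague-Dawley rats; on Day 0, test compounds dosed orally at 3, 10, 30 or 100 mg/kg, with water vehicle, celecoxib 30 mg/kg and acetaminophen 300 mg/kg. Radiant-heat paw withdrawal latency (mean of 3, 30 s cutoff) measured before dosing and about 1, 2 and 4 h after.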

[2] = Bioavailability Test (rat pharmacokinetics); type: in vivo
Procedure: Oral bioavailability of compounds of Formulae (Ie), (Ih), (Ik), and (Ir), or a pharmaceutically acceptable salt of any of the foregoing, were evaluated in fasted male Sprague-Dawley (SD) rats weighing 200-225g. Compounds were dosed at 3 mg/kg (IV) and 30 mg/kg (PO). Unless otherwise noted, compounds were dissolved in 0.9% saline for IV dosing and 100% sterile water for PO dosing. Pharmacokinetic parameters were determined using Phoenix WinNonlin (v7.0). […]

Opiate δ2 = Opiate δ2 (Homo sapiens, UniProt P41143); assay: NSAIDS and Opioid Receptor Test: Opiate δ2; type: binding; conditions: 10 μM
Procedure: Compounds were screened as DMSO solutions at 10 μM, 100 μM, or 200 μM and values represent percent inhibition of control-specific binding. […] As NSAID and opioid mechanisms of action are precluded, a person of ordinary skill in the art understands that undesirable side effects associated with inhibition of COX receptors in NSAIDs and activation of opiate receptors in opioids can be avoided by compounds described herein. Furthermore, opioids are known to lose their analgesic potency after to continued administration. (See Benyamin, et al. “Opioid Complications and Side Effects” Pain Physician 11 (2008): S105-S120). As the data indicates compounds described herein have a different mechanism action compared to opioids, a person of ordinary skill in the art would appreciate that compounds described herein would not be expected to lose their analgesic potency like opioids after continued admininistration.

male Sprague-Dawley rats [3] = assay: Osteoarthritis Pain Test (MIA, mechanical hyperalgesia); type: in vivo; conditions: rat; for joint compression threshold, Day 3, 1 h: Day 3, 1 h post-dosing; for joint compression threshold, Day 3, 2 h: Day 3, 2 h post-dosing; for joint compression threshold, Day 3, 4 h: Day 3, 4 h post-dosing; for joint compression threshold, Day 6, 1 h: Day 6, 1 h post-dosing; for joint compression threshold, Day 6, 2 h: Day 6, 2 h post-dosing; for joint compression threshold, Day 6, 4 h: Day 6, 4 h post-dosing; for joint compression threshold, Day 0, 1 h: Day 0, 1 h post-dosing; for joint compression threshold, Day 0, 2 h: Day 0, 2 h post-dosing; for joint compression threshold, Day 0, 4 h: Day 0, 4 h post-dosing
Procedure: Osteoarthritis pain was induced in non-fasted male Sprague-Dawley rats weighing 150-250 g by injecting 2 mg of monosodium iodoacetate (MIA) into the left knee joint. Mechanical hyperalgesia was measured using a digital Randall-Selitto device (dRS; IITC Life Sciences©; Woodland Hills, Calif.). Animals were allowed to acclimate to the testing room for a minimum of 15 minutes before testing. Animals were placed in a restraint sling that suspended the animal, leaving the hind limbs available for testing. The stimulus was applied to the knee joint by a blunt tip and pressure was applied gradually over approximately 10 seconds. Joint compression threshold values were recorded at the first observed nocifensive behavior (vocalization, struggle, or withdrawal). One reading per joint was taken at each time point, and a maximum stimulus cutoff of 500 grams was used to prevent injury to the animal. Mechanical hyperalgesia was assessed prior to MIA injection, and again 14 days later. After 14 days, test or control articles were administered once daily for 7 days with mechanical hyperalgesia assessed prior to dosing, 1, 2, and 4 hours post-dosing on days 0, 3, and 6. Test compounds were administered orally at concentrations of 3, 10, 30 or 100 mg/kg and celecoxib was administered orally at a concentration of 30 mg/kg. The control group received the vehicle (sterile water). After day 0, groups receiving the 100 mg/kg dose were reduced to a dose of 3 mg/kg. In Table 5, ‘A’ designates ≥375 grams of joint compression, ‘B’ designates ≥325 and <375 grams of joint compression, and ‘C’ designates <325 grams of joint compression.
The results provided in Table 5 are for oral administration in rats.

[4] = male, Sprague-Dawley, in vivo, IV 3 mg/kg, 0.9% saline
[5] = male, Sprague-Dawley, in vivo, PO 30 mg/kg, sterile water
[6] = oral once daily, 3 mg/kg (group had 100 mg/kg on day 0)

Sequence of Opiate δ2 (P41143 whole entry): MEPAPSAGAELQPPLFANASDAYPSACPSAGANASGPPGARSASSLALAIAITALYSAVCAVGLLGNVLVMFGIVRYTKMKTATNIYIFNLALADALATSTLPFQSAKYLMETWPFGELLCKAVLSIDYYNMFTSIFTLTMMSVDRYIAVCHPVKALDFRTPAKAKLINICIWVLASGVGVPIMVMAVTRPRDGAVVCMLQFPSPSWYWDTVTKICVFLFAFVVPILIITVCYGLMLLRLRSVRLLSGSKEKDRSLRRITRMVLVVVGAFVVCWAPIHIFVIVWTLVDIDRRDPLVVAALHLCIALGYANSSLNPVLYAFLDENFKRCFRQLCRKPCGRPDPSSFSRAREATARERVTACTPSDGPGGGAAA

SMILES: Cc1sc(C23CC(N)(C2)C3)nc1C(F)(F)F.Cl [Compound 2, 3-(5-Methyl-4-(trifluoromethyl)thiazol-2-yl)bicyclo[1.1.1]pentan-1-amine hydrochloride]
- paw withdrawal latency, 1 h (male Sprague-Dawley rats [1]; 3 mg/kg): A (>8 seconds of paw withdrawal latency)
- paw withdrawal latency, 2 h (male Sprague-Dawley rats [1]; 3 mg/kg): A (>8 seconds of paw withdrawal latency)
- paw withdrawal latency, 4 h (male Sprague-Dawley rats [1]; 3 mg/kg): A (>8 seconds of paw withdrawal latency)
- paw withdrawal latency, 1 h (male Sprague-Dawley rats [1]; 10 mg/kg): A (>8 seconds of paw withdrawal latency)
- paw withdrawal latency, 2 h (male Sprague-Dawley rats [1]; 10 mg/kg): B (>6 and <8 seconds of paw withdrawal latency)
- paw withdrawal latency, 4 h (male Sprague-Dawley rats [1]; 10 mg/kg): A (>8 seconds of paw withdrawal latency)
- paw withdrawal latency, 1 h (male Sprague-Dawley rats [1]; 30 mg/kg): A (>8 seconds of paw withdrawal latency)
- paw withdrawal latency, 2 h (male Sprague-Dawley rats [1]; 30 mg/kg): A (>8 seconds of paw withdrawal latency)
- paw withdrawal latency, 4 h (male Sprague-Dawley rats [1]; 30 mg/kg): B (>6 and <8 seconds of paw withdrawal latency)
- paw withdrawal latency, 1 h (male Sprague-Dawley rats [1]; 100 mg/kg): A (>8 seconds of paw withdrawal latency)
- paw withdrawal latency, 2 h (male Sprague-Dawley rats [1]; 100 mg/kg): A (>8 seconds of paw withdrawal latency)
- paw withdrawal latency, 4 h (male Sprague-Dawley rats [1]; 100 mg/kg): A (>8 seconds of paw withdrawal latency)
- F ([2]; PO 30 mg/kg vs IV 3 mg/kg): 79%
- AUC(0-inf) [2, 4]: 4 µM·h
- clearance [2, 4]: 52 mL/min/kg
- half-life [2, 4]: 162 min
- Vd ([2]; male, Sprague-Dawley, in vivo, IV 3 mg/kg, 0.9% saline, read-out: Vdss): 3.6 L/kg
- AUC(0-inf) [2, 5]: 29 µM·h
- Cmax [2, 5]: 12 µM
- Tmax [2, 5]: 1 h
- half-life [2, 5]: 144 min
- inhibition at 10 µM (Opiate δ2): 10%
- joint compression threshold, Day 3, 1 h (male Sprague-Dawley rats [3]; [6]): A (≥375 grams of joint compression)
- joint compression threshold, Day 3, 2 h (male Sprague-Dawley rats [3]; [6]): A (≥375 grams of joint compression)
- joint compression threshold, Day 3, 4 h (male Sprague-Dawley rats [3]; [6]): A (≥375 grams of joint compression)
- joint compression threshold, Day 6, 1 h (male Sprague-Dawley rats [3]; [6]): B (≥325 and <375 grams of joint compression)
- joint compression threshold, Day 6, 2 h (male Sprague-Dawley rats [3]; [6]): B (≥325 and <375 grams of joint compression)
- joint compression threshold, Day 6, 4 h (male Sprague-Dawley rats [3]; [6]): B (≥325 and <375 grams of joint compression)
- joint compression threshold, Day 0, 1 h (male Sprague-Dawley rats [3]; oral once daily, 10 mg/kg): C (<325 grams of joint compression)
- joint compression threshold, Day 0, 2 h (male Sprague-Dawley rats [3]; oral once daily, 10 mg/kg): C (<325 grams of joint compression)
- joint compression threshold, Day 0, 4 h (male Sprague-Dawley rats [3]; oral once daily, 10 mg/kg): C (<325 grams of joint compression)
- joint compression threshold, Day 3, 1 h (male Sprague-Dawley rats [3]; oral once daily, 10 mg/kg): B (≥325 and <375 grams of joint compression)
- joint compression threshold, Day 3, 2 h (male Sprague-Dawley rats [3]; oral once daily, 10 mg/kg): A (≥375 grams of joint compression)
- joint compression threshold, Day 3, 4 h (male Sprague-Dawley rats [3]; oral once daily, 10 mg/kg): C (<325 grams of joint compression)
- joint compression threshold, Day 6, 1 h (male Sprague-Dawley rats [3]; oral once daily, 10 mg/kg): B (≥325 and <375 grams of joint compression)
- joint compression threshold, Day 6, 2 h (male Sprague-Dawley rats [3]; oral once daily, 10 mg/kg): B (≥325 and <375 grams of joint compression)
- joint compression threshold, Day 6, 4 h (male Sprague-Dawley rats [3]; oral once daily, 10 mg/kg): A (≥375 grams of joint compression)
- joint compression threshold, Day 0, 1 h (male Sprague-Dawley rats [3]; oral once daily, 30 mg/kg): B (≥325 and <375 grams of joint compression)
- joint compression threshold, Day 0, 2 h (male Sprague-Dawley rats [3]; oral once daily, 30 mg/kg): B (≥325 and <375 grams of joint compression)
- joint compression threshold, Day 0, 4 h (male Sprague-Dawley rats [3]; oral once daily, 30 mg/kg): B (≥325 and <375 grams of joint compression)
- joint compression threshold, Day 3, 1 h (male Sprague-Dawley rats [3]; oral once daily, 30 mg/kg): B (≥325 and <375 grams of joint compression)
- joint compression threshold, Day 3, 2 h (male Sprague-Dawley rats [3]; oral once daily, 30 mg/kg): B (≥325 and <375 grams of joint compression)
- joint compression threshold, Day 3, 4 h (male Sprague-Dawley rats [3]; oral once daily, 30 mg/kg): B (≥325 and <375 grams of joint compression)
- joint compression threshold, Day 6, 1 h (male Sprague-Dawley rats [3]; oral once daily, 30 mg/kg): B (≥325 and <375 grams of joint compression)
- joint compression threshold, Day 6, 2 h (male Sprague-Dawley rats [3]; oral once daily, 30 mg/kg): B (≥325 and <375 grams of joint compression)
- joint compression threshold, Day 6, 4 h (male Sprague-Dawley rats [3]; oral once daily, 30 mg/kg): A (≥375 grams of joint compression)
- joint compression threshold, Day 0, 1 h (male Sprague-Dawley rats [3]; oral, 100 mg/kg): A (≥375 grams of joint compression)
- joint compression threshold, Day 0, 2 h (male Sprague-Dawley rats [3]; oral, 100 mg/kg): A (≥375 grams of joint compression)
- joint compression threshold, Day 0, 4 h (male Sprague-Dawley rats [3]; oral, 100 mg/kg): A (≥375 grams of joint compression)
